Laboratory results taken from patent US20090297566A1, “Oxygen-impervious packaging with optional oxygen scavenger, stabilized thyroid hormone compositions and methods for storing thyroid hormone pharmaceutical compositions” (priority 2004, published 2009).

Key:
[1] = Water content of levothyroxine sodium raw material during forced degradation at 60°C; format: physicochemical; settings: for % H2O: raw material
Description: (§1) This study investigated the effects of humidity and oxygen on the storage of levothyroxine sodium raw material under forced degradation conditions (60° C.).
(§2) High temperature and humidity was known to contribute to potency loss of levothyroxine sodium. Thus, a desiccant was added to the packaging create a low moisture environment to test the effect of reduced humidity upon the shelf life of the product. This study also used a FreshPax Pharma O2 Absorbing Packet as an oxygen scavenger. This oxygen scavenger reduced the level of oxygen in the package to less than 1%. All samples were packaged in 40 cc HDPE bottles.
(§3) • 1. 60 g of levothyroxine sodium raw material was selected. • 2. The levothyroxine was assayed in duplicate to establish the initial potency under laboratory conditions. • 4. The samples were preparation under laboratory conditions. • 5. 3 g was distributed to each of eighteen 40 cc bottles. • 6. 1 g desiccant was added to each of six bottles. • 7. A single FreshPax Pharma O2 Absorbing Packet was added to each of six bottles. • 8. The remaining six bottles were packaged without desiccant or a packet of FreshPax Pharma O2. • 9. The bottles were capped and sealed using a Compak Jr Sealer and appropriate CRC caps. • 10. All bottles were placed in a 60° C. oven. • 11. The samples were tested for potency, as described in Example 2 and water content at 1-week intervals for three weeks, with a previously unopened sample bottle being tested at each interval. Potency analysis was conducted in duplicate weighings from each bottle correcting for actual water content.

[2] = Effects of desiccation and oxygen on levothyroxine sodium raw material, forced degradation at 60°C, potency; format: physicochemical; settings: for % Potency: raw material
Description: as §1, §2, §3

[3] = raw material with FreshPax Pharma O2 packet, 60°C, three weeks
[4] = 3 g in 40 cc HDPE bottle, Initial
[5] = B: FreshPax Pharma O2 packet, 60°C, 1 wk
[6] = B: FreshPax Pharma O2 packet, 60°C, 2 wk
[7] = B: FreshPax Pharma O2 packet, 60°C, 3 wk

With `N[C@@H](Cc1cc(I)c(Oc2cc(I)c(O)c(I)c2)c(I)c1)C(=O)[O-].[Na+]` [Levothyroxine Sodium, 3,3′,5,5′-tetraiodo-L-thyronine sodium salt] the “loss of water content” value ([1]; raw material with 1 g silica gel desiccant, 60°C, within the first week) was “over 1%”, the “water content deviation from original water content” value [1, 3] was at most 1% and the “% H2O” value [1, 4] was 9.9%. For the same molecule, the “% H2O” value ([1]; A: 1 g silica gel, 60°C, 1 wk) was 8.5%, the “% H2O” value ([1]; A: 1 g silica gel, 60°C, 2 wk) was 8.7% and the “% H2O” value ([1]; A: 1 g silica gel, 60°C, 3 wk) was 8.8%. The “% H2O” value [1, 5] was 9.1%, the “% H2O” value [1, 6] was 9.6% and the “% H2O” value [1, 7] was 9.6%. The “% H2O” value ([1]; C: API alone, 60°C, 1 wk) was 9.4%, the “% H2O” value ([1]; C: API alone, 60°C, 2 wk) was 8.9% and the “% H2O” value ([1]; C: API alone, 60°C, 3 wk) was 8.8%. The stability ([2]; raw material packaged with FreshPax Pharma O2 packet, 60°C, three weeks) was “stable”, the potency loss ([2]; raw material with 1 g silica gel desiccant, 60°C, three-week study) was 2.8% and the potency loss [2, 3] was 0.4%. The “% Potency” value [2, 4] was 99.2%, the “% Potency” value ([2]; A: 1 g silica gel, 60°C, 1 wk) was 97.6% and the “% Potency” value ([2]; A: 1 g silica gel, 60°C, 2 wk) was 97.2%. For the same molecule, the “% Potency” value ([2]; A: 1 g silica gel, 60°C, 3 wk) was 96.4%, the “% Potency” value [2, 5] was 99.8% and the “% Potency” value [2, 6] was 99.5%. The “% Potency” value [2, 7] was 98.8%, the “% Potency” value ([2]; C: API alone, 60°C, 1 wk) was 99.6% and the “% Potency” value ([2]; C: API alone, 60°C, 2 wk) was 98%. The “% Potency” value ([2]; C: API alone, 60°C, 3 wk) was 97.3%.
